In the NIST ThermoML archive (doi:10.1021/acs.jced.8b00725):
Numbers after ± are expanded uncertainties.

Settings: 100 kPa, Liquid, Vibrating tube method

Structure (SMILES)	mass density (293.15 K)	mass density (298.15 K)	mass density (303.15 K)	mass density (308.15 K)	mass density (313.15 K)	mass density (318.15 K)	mass density (323.15 K)	mass density (328.15 K)	mass density (333.15 K)	mass density (338.15 K)	mass density (343.15 K)	mass density (348.15 K)	mass density (353.15 K)
CC[NH+](C)C.O=C([O-])C(F)(F)F [N,N-dimethyl-N-ethylammonium trifluoroacetate]	1212.41 ± 10 kg/m3	1208.11 ± 10 kg/m3	1203.82 ± 10 kg/m3	1199.56 ± 10 kg/m3	1195.28 ± 10 kg/m3	1191.03 ± 10 kg/m3	1186.78 ± 9.9 kg/m3	1182.54 ± 9.8 kg/m3	1178.33 ± 9.8 kg/m3	1174.09 ± 9.7 kg/m3	1169.9 ± 9.6 kg/m3	1165.69 ± 9.5 kg/m3	1161.51 ± 9.5 kg/m3
CC[NH2+]CC.O=S(=O)([O-])O [diethylammonium hydrogen sulfate]	1382.76 ± 13 kg/m3	1379.53 ± 13 kg/m3	1376.33 ± 13 kg/m3	1373.15 ± 13 kg/m3	1369.99 ± 13 kg/m3	1366.85 ± 13 kg/m3	1363.73 ± 13 kg/m3	1360.62 ± 13 kg/m3	1357.53 ± 13 kg/m3	1354.45 ± 13 kg/m3	1351.38 ± 13 kg/m3	1348.31 ± 13 kg/m3	1345.25 ± 13 kg/m3
CC[NH2+]CC.CS(=O)(=O)[O-] [diethylammonium methanesulfonate]	–	–	–	–	–	–	–	–	1117.5 ± 8.8 kg/m3	1114.27 ± 8.7 kg/m3	1111.06 ± 8.7 kg/m3	1107.86 ± 8.6 kg/m3	1104.68 ± 8.5 kg/m3
CC[NH2+]CC.O=C([O-])C(F)(F)F [diethylammonium trifluoroacetate]	–	–	–	–	–	–	1158.82 ± 9.4 kg/m3	1154.74 ± 9.3 kg/m3	1150.69 ± 9.3 kg/m3	1146.65 ± 9.2 kg/m3	1142.62 ± 9.2 kg/m3	1138.55 ± 9.1 kg/m3	1134.5 ± 9 kg/m3
O=S(=O)(O)O.OCCN(CCO)CCO [triethanolammonium hydrogen sulfate]	–	–	–	–	–	–	1421.3 ± 14 kg/m3	1418.8 ± 14 kg/m3	1416.33 ± 14 kg/m3	1413.85 ± 14 kg/m3	1411.31 ± 14 kg/m3	1408.87 ± 14 kg/m3	1406.37 ± 14 kg/m3
CCC(=O)[O-].OCC[NH+](CCO)CCO [triethanolammonium propanoate]	1139.53 ± 7 kg/m3	1136.51 ± 7 kg/m3	1133.47 ± 7 kg/m3	1130.43 ± 6.9 kg/m3	1127.31 ± 6.9 kg/m3	1124.25 ± 6.9 kg/m3	1121.15 ± 6.8 kg/m3	1118.01 ± 6.8 kg/m3	1114.84 ± 6.7 kg/m3	1111.68 ± 6.7 kg/m3	1108.5 ± 6.7 kg/m3	1105.29 ± 6.6 kg/m3	1102.06 ± 6.6 kg/m3
O=C(O)c1ccccc1O.OCCN(CCO)CCO [triethanolammonium salicylate]	–	–	–	–	–	–	–	1248.43 ± 11 kg/m3	1245.42 ± 11 kg/m3	1242.4 ± 11 kg/m3	1239.42 ± 11 kg/m3	1236.44 ± 11 kg/m3	1233.42 ± 11 kg/m3
CC(=O)O.CCN(CC)CC [triethylammonium acetate]	1013.29 ± 7.2 kg/m3	1009.63 ± 7.1 kg/m3	1005.87 ± 7 kg/m3	1002.1 ± 7 kg/m3	998.33 ± 6.9 kg/m3	994.55 ± 6.9 kg/m3	990.75 ± 6.8 kg/m3	986.96 ± 6.8 kg/m3	983.14 ± 6.7 kg/m3	979.32 ± 6.7 kg/m3	975.48 ± 6.6 kg/m3	971.62 ± 6.6 kg/m3	967.74 ± 6.5 kg/m3
CC[NH+](CC)CC.O=C([O-])c1ccccc1 [triethylammonium benzoate]	1101.47 ± 8.5 kg/m3	1098.02 ± 8.4 kg/m3	1094.65 ± 8.4 kg/m3	1091.27 ± 8.3 kg/m3	1087.87 ± 8.3 kg/m3	1084.47 ± 8.2 kg/m3	1081.07 ± 8.2 kg/m3	1077.68 ± 8.1 kg/m3	1074.3 ± 8.1 kg/m3	1070.92 ± 8 kg/m3	1067.55 ± 8 kg/m3	1064.18 ± 7.9 kg/m3	1060.82 ± 7.9 kg/m3
CCN(CC)CC.O=P(O)(O)O [triethylammonium dihydrogen phosphate]	–	–	–	–	–	–	–	–	–	1329.48 ± 12 kg/m3	1327.08 ± 12 kg/m3	1324.69 ± 12 kg/m3	1322.31 ± 12 kg/m3
CC[NH+](CC)CC.CS(=O)(=O)[O-] [triethylammonium methanesulfonate]	1120.47 ± 8.8 kg/m3	1117.11 ± 8.7 kg/m3	1113.77 ± 8.7 kg/m3	1110.44 ± 8.6 kg/m3	1107.13 ± 8.6 kg/m3	1103.83 ± 8.5 kg/m3	1100.54 ± 8.5 kg/m3	1097.26 ± 8.4 kg/m3	1093.99 ± 8.4 kg/m3	1090.72 ± 8.3 kg/m3	1087.47 ± 8.3 kg/m3	1084.22 ± 8.2 kg/m3	1080.98 ± 8.2 kg/m3
CCN(CC)CC.O=C(O)c1ccccc1O [triethylammonium salicylate]	1099.07 ± 8.5 kg/m3	1095.79 ± 8.4 kg/m3	1092.57 ± 8.3 kg/m3	1089.33 ± 8.3 kg/m3	1086.08 ± 8.2 kg/m3	1082.83 ± 8.2 kg/m3	1079.58 ± 8.2 kg/m3	1076.35 ± 8.1 kg/m3	1073.13 ± 8.1 kg/m3	1069.93 ± 8 kg/m3	1066.73 ± 8 kg/m3	1063.54 ± 7.9 kg/m3	1060.36 ± 7.9 kg/m3
CC[NH+](CC)CC.O=C([O-])C(F)(F)F [triethylammonium trifluoroacetate]	1165.69 ± 9.5 kg/m3	1161.57 ± 9.5 kg/m3	1157.44 ± 9.4 kg/m3	1153.32 ± 9.3 kg/m3	1149.21 ± 9.3 kg/m3	1145.1 ± 9.2 kg/m3	1141 ± 9.1 kg/m3	1136.91 ± 9.1 kg/m3	1132.82 ± 9 kg/m3	1128.74 ± 8.9 kg/m3	1124.67 ± 8.9 kg/m3	1120.6 ± 8.8 kg/m3	1116.54 ± 8.7 kg/m3
CC[NH+](CC)CC.O=S(=O)([O-])C(F)(F)F [triethylammonium trifluoromethanesulfonate]	1268.63 ± 11 kg/m3	1264.56 ± 11 kg/m3	1260.51 ± 11 kg/m3	1256.47 ± 11 kg/m3	1252.45 ± 11 kg/m3	1248.45 ± 11 kg/m3	1244.46 ± 11 kg/m3	1240.48 ± 11 kg/m3	1236.53 ± 11 kg/m3	1232.58 ± 11 kg/m3	1228.65 ± 11 kg/m3	1224.73 ± 11 kg/m3	1220.84 ± 10 kg/m3
